According to patent US20240254119A1 (THIRD HARMONIC BIO, INC., priority 2022, published 2024):
pIC50: −log10 of the molar value.

Experiments:
MDR1 (MDR1-MDCKII cells) = biological target: T1, MDR1 (MDR1-MDCKII cells) (Homo sapiens, UniProt P08183); assay: Permeability in MDR1-MDCKII cells; type: in vitro ADME; details: for MDCKII-MDR1: Papp A-B: MDCKII-MDR1, apical to basolateral
T1 construct: host or cells: MDCKII (canine kidney) cells
Description: Exemplary compounds were tested for cell permeability in Caco-2, MDCKII-MDR1 and MDCKII-BCRP cell lines with efflux transporter engagement inferred from the efflux ratios determined. Procedures and results are described below. […] This feature of certain compounds is in part due to efflux transporter engagement. See, for instance, exemplary such compounds included in data tables below.
MDR1-MDCKII cells (obtained from Piet Borst at the Netherlands Cancer Institute) were seeded onto […] membranes (PET) in 96-well insert systems at 2.5×10^5 cells/mL until to 4-7 days for confluent cell monolayer formation.
Test compounds were diluted with the transport buffer (HBSS with 10 mM Hepes, pH7.4) from DMSO stock solution to a concentration of 2.00 μM (DMSO<1%) and applied to the apical or basolateral side of the cell monolayer. Permeation of the test compounds from A to B direction or B to A direction was determined in duplicate. Digoxin was tested at 10.0 μM from A to B direction or B to A direction as well, while nadolol and metoprolol were tested at […] in A to B direction in duplicate. The plate was incubated for 2.5 hours in CO2 incubator at 37±1° C., with 5% CO2 at saturated humidity without shaking. In addition, the efflux ratio of each compound was also determined. Test and reference compounds were quantified by LC-MS/MS analysis based on the peak area ratio of analyte/IS.
After transport assay, Lucifer yellow rejection assay are applied to determine the cell monolayer integrity. Buffers are removed from both apical and basolateral chambers, followed by the addition of 75 μL of 100 μM lucifer yellow in transport buffer and 250 μL transport buffer in apical and basolateral chambers, respectively. The plate is incubated for 30 minutes at 37° C. with 5% CO2 and saturated humidity without shaking. After 30 minutes incubation, 20 μL of lucifer yellow samples are taken from the apical sides, followed by the addition of 60 μL of Transport Buffer. And then 80 μL of lucifer yellow samples are taken from the basolateral sides. The relative fluorescence unit (RFU) of lucifer yellow is measured at 425/528 nm (excitation/emission) with an Envision plate reader.
The apparent permeability coefficient Papp (cm/s) was calculated using the equation: […]
Where dCr/dt is the cumulative concentration of compound in the receiver chamber as a function of time (μM/s); Vr is the solution volume in the receiver chamber (0.075 mL on the apical side, 0.25 mL on the basolateral side); A is the surface area for the transport, i.e. 0.0804 cm^2 for the area of the monolayer; C0 is the initial concentration in the donor chamber (μM). The efflux ratio was calculated using the equation: […]
Where Vd is the volume in the donor chambers (0.075 mL on the apical side, 0.25 mL on the basolateral side); Cd and Cr are the final concentrations of transport compound in donor and receiver chambers, respectively.

CYP3A4 = assay: Hepatocyte CYP induction assay, CYP3A4 gene expression; type: in vitro ADME; details: human hepatocytes, donor four
Description: Exemplary compounds were tested for ability to induce CYP3A4 and/or CYP1A2 in hepatocytes. Procedures and results are described below.
Cryopreserved human hepatocytes were purchased from BioIVT (Baltimore, MD, USA), and they were stored in liquid nitrogen before using. The detailed information of hepatocytes is as follows:
Fresh dosing solutions of test compounds, and Rifampicin were prepared in the incubation medium on the day of dosing.
Cryopreserved hepatocytes were thawed and counted to determine yield, viability was measured. Hepatocytes at the concentrations of 0.7 million/mL were transferred to collagen-coated 96-well plates for attachment (0.1 mL viable cells/well). After allowing 4 to 5 hours for attachment of cells, the plating medium was replaced with Incubation Medium containing 2% (v/v) Matrigel™ (sandwich medium) and the hepatocytes were incubated until use.
All incubations were conducted at 37° C., 5% CO2, and saturated humidity.
The sandwich medium was removed and the hepatocytes were treated with incubation solutions containing test articles in vehicle (0.1% DMSO), or positive control for 24 hours after the cultures were established. The incubation solution was aspirated and replaced with incubation solution containing the same concentrations of test articles, vehicle, or positive controls for an additional 24 hours. The total treatment period was 48 hours. Triplicate were used for each concentration of test compound and positive control.
After treatment period of 48 hours, the incubation solution was aspirated. Hepatocytes were washed once with pre-warmed HBSS and incubated with 140 μL of RLT (lysis buffer from Rneasy 96 Kit) supplemented with 1% β-mercaptoethanol. Plates were then stored at ≤−60° C. freezer until RNA analysis.
Before RNA extraction, the frozen plate was thawed and cell lysates were transferred to 96-well plates. RNA isolation was performed using QIAcube HT System. RNA concentration was measured with NanoDrop ND-2000 spectrophotometer. The purity of RNA preparation was calculated by the ratio of the OD260 nm/OD280 nm and the acceptable range is between 1.8 and 2.2. Reverse transcription was performed to obtain cDNA. Quantification of the selective genes by real time quantitative Polymerase Chain Reaction (qPCR) was performed with TaqMan universal PCR Master Mix on the BIO-RAD CFX 384 Touch Real Time PCR System. The following setting were used: 50° C. for 2 minutes, 95° C. for 10 minutes, 40 cycles of 95° C. for 15 seconds and 60° C. for 1 minute. 18S rRNA was used as the internal standard.
To account for variation in RNA yields and reverse transcription polymerase chain reaction (RT-PCR), the gene of interest in all samples was normalized to an internal control gene (18S ribosomal RNA) (Cttarget gene−Ct18S=ΔCt).
The relative quantitation or change in mRNA level of selected genes induced by each test compound was expressed in relation to the vehicle control sample (Δctcompound−ΔCtvehicle=ΔΔCt). Fold changes in gene expression were determined by taking 2 to the power of this value (2^−ΔΔt).
% of positive control [(fold change in treated sample)−1]/[(fold change in positive control)−1]×100

CSF-1R = biological target: T2, CSF-1R (Homo sapiens, UniProt P07333); assay: HTRF biochemical assay, CSF-1R; details: Table 4
T2 construct: purchased Invitrogen PV3249 (lot 662393N)
Summary of the method: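 Kinase phosphorylation of a FAM-labelled peptide substrate, with ATP and Mn^2+ cofactors, run for 3 h at 25 °C, with optional enzyme–compound pre-incubation. Reactions were quenched with EDTA, and phosphopeptide was detected by anti-phosphotyrosine antibody HTRF.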

T1 sequence (P08183 whole entry): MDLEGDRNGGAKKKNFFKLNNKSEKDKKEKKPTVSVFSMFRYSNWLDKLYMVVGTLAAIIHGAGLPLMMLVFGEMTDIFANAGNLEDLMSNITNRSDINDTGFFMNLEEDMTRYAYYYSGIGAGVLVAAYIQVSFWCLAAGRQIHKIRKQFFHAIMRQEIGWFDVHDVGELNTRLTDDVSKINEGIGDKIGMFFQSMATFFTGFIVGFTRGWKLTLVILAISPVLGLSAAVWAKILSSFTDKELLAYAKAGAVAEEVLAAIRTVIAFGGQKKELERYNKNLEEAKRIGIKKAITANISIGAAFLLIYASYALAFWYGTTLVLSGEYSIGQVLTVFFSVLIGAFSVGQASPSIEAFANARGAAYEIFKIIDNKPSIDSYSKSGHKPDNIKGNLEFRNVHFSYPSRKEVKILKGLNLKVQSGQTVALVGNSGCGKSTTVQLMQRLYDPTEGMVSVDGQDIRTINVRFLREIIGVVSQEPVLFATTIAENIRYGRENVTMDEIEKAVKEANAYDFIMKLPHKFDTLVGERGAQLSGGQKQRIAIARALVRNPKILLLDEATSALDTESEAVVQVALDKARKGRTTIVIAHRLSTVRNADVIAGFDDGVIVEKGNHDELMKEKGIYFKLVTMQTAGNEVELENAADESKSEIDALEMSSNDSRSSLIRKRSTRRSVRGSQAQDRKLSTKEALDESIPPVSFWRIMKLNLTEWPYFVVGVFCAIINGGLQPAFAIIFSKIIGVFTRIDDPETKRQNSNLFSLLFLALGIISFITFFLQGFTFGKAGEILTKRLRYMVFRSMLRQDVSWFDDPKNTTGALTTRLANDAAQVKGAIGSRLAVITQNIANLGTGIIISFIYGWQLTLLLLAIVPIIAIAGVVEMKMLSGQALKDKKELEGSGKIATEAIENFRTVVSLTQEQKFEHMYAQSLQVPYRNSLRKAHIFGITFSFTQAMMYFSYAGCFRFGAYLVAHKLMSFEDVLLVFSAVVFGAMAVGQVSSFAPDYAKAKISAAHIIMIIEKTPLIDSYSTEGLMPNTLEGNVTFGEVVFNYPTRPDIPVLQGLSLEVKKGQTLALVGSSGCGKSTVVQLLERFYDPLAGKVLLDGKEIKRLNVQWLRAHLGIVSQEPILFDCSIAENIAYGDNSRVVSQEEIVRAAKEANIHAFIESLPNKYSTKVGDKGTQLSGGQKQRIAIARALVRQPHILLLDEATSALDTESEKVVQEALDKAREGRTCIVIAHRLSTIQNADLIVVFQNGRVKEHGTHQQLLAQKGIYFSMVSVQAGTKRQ
T2 sequence (P07333 20-972): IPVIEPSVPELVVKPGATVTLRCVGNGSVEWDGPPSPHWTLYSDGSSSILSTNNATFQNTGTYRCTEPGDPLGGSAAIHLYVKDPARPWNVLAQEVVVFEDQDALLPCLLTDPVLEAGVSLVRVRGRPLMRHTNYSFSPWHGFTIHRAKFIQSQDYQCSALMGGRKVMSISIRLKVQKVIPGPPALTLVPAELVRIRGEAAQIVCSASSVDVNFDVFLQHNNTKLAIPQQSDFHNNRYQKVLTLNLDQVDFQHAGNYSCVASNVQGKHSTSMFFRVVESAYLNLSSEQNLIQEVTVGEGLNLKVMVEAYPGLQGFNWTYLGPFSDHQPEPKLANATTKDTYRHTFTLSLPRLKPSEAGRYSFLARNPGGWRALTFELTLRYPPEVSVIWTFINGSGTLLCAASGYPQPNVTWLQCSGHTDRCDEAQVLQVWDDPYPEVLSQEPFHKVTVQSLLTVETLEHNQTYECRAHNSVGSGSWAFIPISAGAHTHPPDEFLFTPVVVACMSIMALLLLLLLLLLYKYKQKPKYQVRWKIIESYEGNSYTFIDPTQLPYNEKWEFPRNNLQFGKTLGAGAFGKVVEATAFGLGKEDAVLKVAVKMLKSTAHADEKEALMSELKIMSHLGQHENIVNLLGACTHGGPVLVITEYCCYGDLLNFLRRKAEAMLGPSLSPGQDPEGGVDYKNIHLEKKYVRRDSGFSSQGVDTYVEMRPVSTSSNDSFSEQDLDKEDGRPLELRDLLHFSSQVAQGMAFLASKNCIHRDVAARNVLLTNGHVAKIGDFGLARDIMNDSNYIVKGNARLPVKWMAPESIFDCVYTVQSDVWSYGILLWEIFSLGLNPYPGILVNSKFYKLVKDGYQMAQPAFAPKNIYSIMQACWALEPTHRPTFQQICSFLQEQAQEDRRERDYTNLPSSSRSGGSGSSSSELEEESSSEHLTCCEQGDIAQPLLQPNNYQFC

SMILES	MDCKII-MDR1: Efflux Ratio (MDR1 (MDR1-MDCKII cells))	MDCKII-MDR1: Papp A-B (MDR1 (MDR1-MDCKII cells))	CYP 3A4 induction mRNA: Mean fold at 10 μM (CYP3A4)	pIC50 (CSF-1R)
Cc1ccc(-c2noc(C(C)NS(C)(=O)=O)n2)cc1NC(=O)c1cnc2ccccn12 (single isomer, unassigned) [Compound I-237]	20.5	1.43 10^−6 cm/s		
CCCS(=O)(=O)N1CC(c2nc(-c3ccc(Cl)c(NC(=O)c4cnc5ccccn45)c3)no2)C1 [Compound I-220]	0.71	16.3 10^−6 cm/s	+++ (induction fold of greater than 3-fold to less than or equal to 10-fold)	
Cc1ccc(-c2noc(C3COC3)n2)cc1NC(=O)c1cnc2ccccn12 [Compound I-138]	1.01	22 10^−6 cm/s	+ (induction fold of less than or equal to 2-fold)	
COC(=O)N1CC(c2nc(-c3ccc(Cl)c(NC(=O)c4cnc5ccccn45)c3)no2)C1 [Compound I-339]	0.84	22.8 10^−6 cm/s		5.30 to 6.30
Cc1ccc(-c2noc(C3CN(C(=O)CO)C3)n2)cc1NC(=O)c1cnc2ccccn12 [Compound I-287]	27.9	0.83 10^−6 cm/s		
Cc1ccc(-c2noc(C3CCC(F)C3)n2)cc1NC(=O)c1cnc2ccccn12 (racemic) [Compound I-319]	0.76	10 10^−6 cm/s		
Cc1ccc(-c2noc(C3CCS(=O)(=O)C3)n2)cc1NC(=O)c1cnc2ccccn12 (racemic) [Compound I-389]	10.9	3.53 10^−6 cm/s		
Cc1ccc(-c2noc([C@H]3C[C@@H]3F)n2)cc1NC(=O)c1cnn2ccccc12 [Compound I-109]				6.30 to 7.30
Cc1ccc(-c2noc(C3CC(F)C3)n2)cc1NC(=O)c1cnc2ccccn12 (stereo not shown) [Compound I-381]	0.55	5.95 10^−6 cm/s		
CCOc1ccn2c(C(=O)Nc3cc(-c4noc([C@H]5C[C@@H]5F)n4)ccc3C)cnc2c1 [Compound I-93]				≥ 7.30
Cc1ccc(-c2noc([C@H]3C[C@@H]3F)n2)cc1NC(=O)c1cnc2ccc(C#N)cn12 [Compound I-384]	0.88	17.9 10^−6 cm/s		
Cc1ccc(-c2noc(C3(N)CC4(CC(F)(F)C4)C3)n2)cc1NC(=O)c1cnc2ccccn12 [Compound I-307]	1.93	8.84 10^−6 cm/s		
COc1ccn2c(C(=O)Nc3cc(-c4noc(C[C@H](C)O)n4)ccc3C)cnc2c1 [Compound I-94]				≥ 7.30
Cc1ccc(-c2noc(C(C)O)n2)cc1NC(=O)c1cnc2ccccn12 (racemic) [Compound I-364]	2.02	16 10^−6 cm/s		
Cc1ccc(-c2noc([C@@H](C)O)n2)cc1NC(=O)c1cnc2ccccn12 [Compound I-270]	1.73	17.2 10^−6 cm/s		
COc1ccn2c(C(=O)Nc3cc(-c4noc(CC5CC(F)(F)C5)n4)ccc3C)cnc2c1 [Compound I-91]				6.30 to 7.30

SMILES	MDCKII-MDR1: Efflux Ratio (MDR1 (MDR1-MDCKII cells))	MDCKII-MDR1: Papp A-B (MDR1 (MDR1-MDCKII cells))	CYP 3A4 induction mRNA: Mean fold at 10 μM (CYP3A4)	pIC50 (CSF-1R)
Cc1nc(-c2ccc(Cl)c(NC(=O)c3cnc4ccccn34)c2)no1 [Compound I-172]	0.46	22.7 10^−6 cm/s		
Cc1ccc(-c2noc(C3CC(OCCF)C3)n2)cc1NC(=O)c1cnc2ccccn12 (stereo not shown) [Compound I-369]	0.87	24.4 10^−6 cm/s		4.52 to 5.30
COC(=O)N1CC(c2nc(-c3ccc(C)c(NC(=O)c4cnn5ccc(Br)cc45)c3)no2)C1 [Compound I-280]	1.19	11.8 10^−6 cm/s		
Cc1ccc(-c2noc(C3CC(C)(F)C3)n2)cc1NC(=O)c1cnc2ccccn12 (stereo not shown) [Compound I-387]	0.48	7.59 10^−6 cm/s		
CNC(=O)N1CC(c2nc(-c3ccc(C)c(NC(=O)c4cnc5ccccn45)c3)no2)C1 [Compound I-282]	70.3	0.47 10^−6 cm/s		
COc1ccn2c(C(=O)Nc3cc(-c4noc(C5CC(F)(F)C5)n4)ccc3C)cnc2c1 [Compound I-96]				≥ 7.30
Cc1ccc(-c2noc(C3(C)CC(F)(F)CN3)n2)cc1NC(=O)c1cnc2ccccn12 (racemic) [Compound I-328]	0.93	20.8 10^−6 cm/s		
CCCNc1ccn2c(C(=O)Nc3cc(-c4noc([C@H]5C[C@@H]5F)n4)ccc3C)cnc2c1 [Compound I-304]	1.08	3.65 10^−6 cm/s		
Cc1ccc(-c2noc(CCO)n2)cc1NC(=O)c1cnc2ccccn12 [Compound I-306]	2.88	14.5 10^−6 cm/s		5.30 to 6.30
COc1ccn2c(C(=O)Nc3cc(-c4noc(CC(O)C(F)F)n4)ccc3C)cnc2c1 (single isomer, unassigned) [Compound I-76]				≥ 7.30
Cc1ccc(-c2noc(C3(O)CC(F)(F)C3)n2)cc1NC(=O)c1cnc2ccccn12 [Compound I-380]	2.34	10.9 10^−6 cm/s		
Cc1ccc(-c2noc(CC(C)(C)O)n2)cc1NC(=O)c1cnc2ccccn12 [Compound I-336]	1.85	15.4 10^−6 cm/s		6.30 to 7.30
Cc1ccc(-c2noc(C3CCC3F)n2)cc1NC(=O)c1cnc2ccccn12 (racemic) [Compound I-376]	0.54	8.41 10^−6 cm/s		
O=C(Nc1cc(-c2noc([C@H]3C[C@@H]3F)n2)ccc1Cl)c1cnc2ccccn12 [Compound I-341]	0.82	17.7 10^−6 cm/s		
Cc1ccc(-c2noc(CC(O)C(F)F)n2)cc1NC(=O)c1cnc2ccccn12 (stereo not shown) [Compound I-122]				6.30 to 7.30
